# Test results taken from US8778643B2, “Methods for increasing lipid levels and producing triacylglycerols in algae” (priority 2012, dated 2014).
# Where “and” joins values, the source holds several entries; their conditions need not be identical. Equal values may be shown once. Read-outs that look alike come from different tables or passages of the source.
# How the values were obtained:
# [1] = test system: Phaeodactylum tricornutum; assay: Microplate assay: growth (absorbance 680 nm) and intracellular lipids (Nile Red fluorescence); type: cell-based; details: for Nile Red Fluorescence % Increase: initial screening, p<0.05; for effect on lipid production / lipid levels: microplate assay, multiple concentrations
# Description: Stock cultures were aerated by stirring with bubbling air (homemade manifold with Petco air pump, 2-4% CO2) or by orbital shaking (Thermo Scientific MAXQ 2000) at a constant speed of 150 rpm at 22±3° C. with a 16:8 hour light/dark cycle. Stocks were kept at stationary phase for use. Algae were prepared as dictated by culture center.
# Compounds were selected based on reported biological activity in non-microalgae organisms. To ensure that compounds retained their quality, they were stored under advised conditions after purchasing from the manufacturer. Solutions of all assay compounds were prepared as 10 mM stock solutions by dissolving in DMSO in 2-dram amber vials and then stored in darkness −20° C. 96-well PCR plates were used to create a stock plate layout that was then transferred to the algae microplates. A plate map was used to distribute each compound to a well based on molecule name, collection number, and CAS number. For 20 μM and 200 nM assay plates, 10 mM compound stock in DMSO was diluted into plate maps of 5 mM and 50 μM assay stocks, respectively.
# All materials for assay experiments were autoclaved before each use to maintain axenic algae cultures. Algae species were checked for homogeneity using a TS-100 light microscope (Nikon, Japan). […] Diluted stock solutions were made immediately prior to use for consistency and optimal plate growth. Cell density was measured on a Thermo Scientific Genesys 10S Vis Spectrophotometer (ThermoFisher, San Jose), using a 1 mL cuvette at 680 nm.
# Plates were originally run in triplicate, before replicates were increased to quadruplicate, along with a separate control plate to compare growth. Due to extensive evaporation in exterior wells over time, our unique algae plate layout was designed to use the 60 interior wells out of 96 wells for the experiment. The 36 outer wells were filled with Millipore water and media to prevent evaporation and edge effects in the inner algae wells, as well as serve as blanks. The 60 wells with algae contained a total volume of 251 μL (100 μL of media+DMSO compound stock +150 μL dilute algae stock). For 20 μM and 200 nM assay plates, 10 mM compound stock in DMSO is diluted into plate maps of 5 mM and 50 μM assay stocks, respectively. […] Plates were parafilmed during growth to limit the amount of evaporation that can occur. Plates were numbered, and numerically ordered to ensure they got the same shaker space.
# The shakers are kept at a constant shaking of 150 rpm. Ambient temperature is 22±3° C.
# Nannochloropsis salina = details: for % Inc: increase of lipid production; for effect on lipid production / lipid levels: microplate assay, multiple concentrations
# Nannochloropsis oculata [2] = details: for % Lipid increase based on Nile red fluorescence intensity: t=day 0; for % Increase based on Nile Red Fluorescence Intensity: added t=day 0; for effect on lipid production / lipid levels: microplate assay, multiple concentrations
# Nannochloris sp. = assay: Microplate assay: growth (absorbance 680 nm) and intracellular lipids (Nile Red fluorescence); type: cell-based; details: for effect on lipid production / lipid levels: microplate assay, multiple concentrations
# Nannochloropsis oculata [3] = assay: Lipid composition of batch culture extracts (fatty acid saturation / PUFA by 1H NMR, MALDI-TOF, GC/MS); type: cell-based
# Description: The nonpolar algal extracts were harvested from 500 mL cultures when indicated on growth curves, a minimum of 3 days into stationary phase. […] Cells were crushed and nonpolar lipids were extracted by sonication (Fisher Scientific Model 120 Sonic Dismembrator, ThermoFisher, San Jose) for 1 minute in chloroform, followed by chloroform-methanol extractions, washed with PBS butter, and dried under vacuum.^55-60 The crude non-polar algae extracts were then analyzed by ^1H Nuclear Magnetic Resonance (^1H NMR) for verification of TAG presence and examination of the purity of the extract (determination of level of chlorophyll). The extracts were then divided for analysis; one part for transesterification, one part to save as crude extract, and one part for SPE separation and MALDI-TOF analysis of TAGs.
# Triacylglycerols can be isolated by solid-phase extraction (SPE) with 500 mg silica SPE cartridges (Silicycle, Quebec). The nonpolar extract is dissolved in 300 μL hexanes, and loaded on the SPE cartridge primed with hexanes. A mixture of 80:20:1 hexanes/diethyl ether/acetic acid was used as mobile phase to elute the TAGs.^61 SPE removes any chlorophyll in this process. Residual polar fraction containing polar lipids and chlorophyll was obtained by elution with acetone. All extracts and TAG fractions were dried under vacuum and stored under argon in amber vials at −20° C. before spectroscopic analysis. After SPE, the purified TAG fraction was reanalyzed with ^1H NMR spectroscopy for TAG characterization.
# The TOF was in Reflectron mode with laser intensity from 5500-6500 Volts. Each acquisition consisted of 2500 shots with a focus mass of 900 Da, and a scan range of m/z 400-1100. Multiple acquisition scans were performed at different laser intensities to determine optimal conditions. Samples for the MALDI-TOF were diluted to 5 mg/mL in hexane, and spotted in the fast-evaporation method in a 1:2 ratio with DHB (2,5-dihydroxybenzoic acid) as the matrix. Re-spotting with methanol allowed for the matrix and sample to mix without hexane interactions, and allowed for better crystal formation. All samples on MALDI plate were allowed to dry before MS analysis. Data was normalized to base peak in all cases.
# After the initial weight was recorded, the nonpolar extract set aside for transesterification was dissolved in 3.0 mL of 0.6 M sulfuric acid in methanol and stirred vigorously at 60° C. for 45 minutes.
# Initial GC/MS temperature was 50° C. and end was 200° C. over at a one hour period for optimal FAME peak separation.
# Peak assignment of fatty acids and their derivatives are based on NMR spectroscopic studies of previously reported algal lipid extracts^9 and comparison to standards such as olive oil (ACROS) and fatty acid mixtures.
# We developed a quick and robust method to screen if the screened compound effect fatty acid saturation levels using ^1H NMR spectroscopy. The amount of saturated fatty acids (SFA), monounsaturated fatty acids (MUFAs), and polyunsaturated fatty acids (PUFAs) was determined using peak area ratios.
# Calculated based on ^1H NMR integral ratios for the proton signals for the methyl group of PUFA components vs. the methyl groups of monounsaturated and saturated components.
# [4] = 200 nM, initial microplate screen, relative to control
# [5] = 10 μM, dose-response microplate screen
# [6] = 40 μM, dose-response microplate screen
# [7] = 40 μM, initial microplate screen, relative to control
# [8] = 20 μM, initial microplate screen, relative to control
# [9] = N. oculata, compounds tested at 200 nM, initial screening, p<0.05
# [10] = Nannochloris sp., compounds tested at 20 μM, initial screening, p<0.05
smiles,measurement,setting,value
"O=c1cc(-c2ccccc2)oc2cc(O)c(O)c(O)c12 [Baicalein, 5,6,7-Trihydroxy-2-phenyl-chromen-4-one]",Nile Red percent increase,"[1]; 0.0252 nM, dose-response microplate screen",105%
same,% increase (lipid production),[1]; 0.0252-55.2 nM,5-94%
same,% increase (lipid production),"Nannochloropsis salina; 0.0252-55.2 nM, DMSO delivery",3-28%
same,% increase (lipid production),Nannochloropsis salina; 0.0252-165.6 nM (H2O),6-30 (H2O) %
same,Nile Red Fluorescence % Increase,"Nannochloropsis salina; N. salina, compounds tested at 20 μM, initial screening, p<0.05",37.3%
same,% increase (lipid production),Nannochloropsis oculata [2]; 0.0252 nM,25%
same,% Lipid increase based on Nile red fluorescence intensity,"Nannochloropsis oculata [2]; N. oculata, 25.2 pM, DMSO",52%
same,% Lipid increase based on Nile red fluorescence intensity,"Nannochloropsis oculata [2]; N. oculata, 40 μM, (water)",76%
same,% Increase based on Nile Red Fluorescence Intensity,"Nannochloropsis oculata [2]; N. oculata, 25.2 pM, DMSO delivery",52%
same,% Increase based on Nile Red Fluorescence Intensity,"Nannochloropsis oculata [2]; N. oculata, 40 μM, dissolved in water",76%
"C/C(=C\CNc1ncnc2nc[nH]c12)CO [Zeatin, (E)-2-methyl-4-(7H-purin-6-ylamino)but-2-en-1-ol]",% Increase based on Nile Red Fluorescence Intensity,[1],114%
same,% Lipid increase based on Nile red fluorescence intensity,[1],114%
same,% Increase based on Nile Red Fluorescence Intensity,Nannochloropsis salina,64% and 50%
same,% Lipid increase based on Nile red fluorescence intensity,Nannochloropsis salina,64%
same,Nile Red Fluorescence % Increase,Nannochloropsis oculata [2],157.1%
NS(=O)(=O)c1ccc(N/N=C2\C(=O)Nc3ccc(Br)cc32)cc1 [CDK2 I2],Absorbance (percent increase),[1]; [4],−7.9%
same,Nile Red percent increase,[1]; [4],50.3%
same,Nile Red percent increase,"[1]; 2.5 μM, dose-response microplate screen",160%
same,Nile Red percent increase,[1]; [5],140%
same,Nile Red percent increase,[1]; [6],380%
same,Absorbance (percent increase),[1]; [7],−14.6%
same,Nile Red percent increase,[1]; [7],150.6%
same,% Lipid increase based on Nile red fluorescence intensity,"[1]; P. tricornutum, 40 μM, DMSO, t=day 0",347%
same,Nile Red Fluorescence % Increase,"[1]; P. tricornutum, compounds tested at 200 nM",50.3%
same,Nile Red Fluorescence % Increase,"[1]; P. tricornutum, compounds tested at 40 μM",150.6%
same,% Increase based on Nile Red Fluorescence Intensity,"[1]; P. tricornutum, 10 μM, DMSO delivery, added t=day 0",86%
same,% Increase based on Nile Red Fluorescence Intensity,"[1]; P. tricornutum, 40 μM, DMSO delivery, added t=day 0",347%
same,% Inc,"[1]; increase of lipid production, P. tricornutum, best conc. 2.5 μM",163.88%
same,Nile Red percent increase,"Nannochloris sp.; 40 nM-40 μM, dose-response microplate screen",110-210%
same,Absorbance (percent increase),Nannochloris sp.; [4],−14.0%
same,Nile Red percent increase,Nannochloris sp.; [4],103.2%
same,Nile Red percent increase,Nannochloropsis salina; [5],121%
same,Nile Red percent increase,Nannochloropsis salina; [6],271%
"Oc1cc(O)c2c(c1)O[C@H](c1cc(O)c(O)c(O)c1)[C@H](O)C2 [(−)-epigallocatechin, (2R,3R)-2-(3,4,5-trihydroxyphenyl)-3,4-dihydro-2H-chromene-3,5,7-triol]",effect on lipid production / lipid levels,[1],reduction in lipids
same,effect on lipid production / lipid levels,Nannochloris sp.,reduction in lipids
same,% Inc,"Nannochloropsis salina; N. salina, best conc. 39 nM",216.15%
same,effect on lipid production / lipid levels,Nannochloropsis salina,reduction in lipids
same,effect on lipid production / lipid levels,Nannochloropsis oculata [2],reduction in lipids
CNC[C@H](O)c1ccc(O)c(O)c1 [Epinephrine],Nile Red Fluorescence % Increase,Nannochloris sp.,44.9%
same,Nile Red Fluorescence % Increase,Nannochloropsis oculata [2],129.3%
"O=P(O)(O)Oc1ccc2ccccc2c1 [Napthyl acid phosphate, naphthalen-2-yl hydrogen phosphate]",% Increase based on Nile Red Fluorescence Intensity,[1],51%
same,% Lipid increase based on Nile red fluorescence intensity,[1],51%
same,% increase (lipid production),[1],4% and 1-60%
same,% increase (lipid production),Nannochloropsis oculata [2],18%
"COc1cc(C[C@H]2C(=O)OC[C@@H]2Cc2ccc(OC)c(OC)c2)ccc1O [Arctigenin, (3R,4R)-4-[(3,4-dimethoxyphenyl)methyl]-3-[(4-hydroxy-3-methoxyphenyl)methyl]-2-tetrahydrofuranone]",% Lipid increase based on Nile red fluorescence intensity,"[1]; P. tricornutum, 41.2 nM, DMSO, t=day 0",61%
same,% Increase based on Nile Red Fluorescence Intensity,"[1]; P. tricornutum, 41.2 nM, DMSO delivery, added t=day 0",61%
same,Absorbance (percent increase),Nannochloris sp.; [4],−3.4%
same,Nile Red percent increase,Nannochloris sp.; [4],66.0%
same,Absorbance (percent increase),Nannochloris sp.; [8],−5.4%
same,Nile Red percent increase,Nannochloris sp.; [8],79.0%
same,% Lipid increase based on Nile red fluorescence intensity,"Nannochloropsis salina; N. salina, 370.4 nM, DMSO, t=day 0",64%
same,% Increase based on Nile Red Fluorescence Intensity,"Nannochloropsis salina; N. salina, 13 nM, DMSO delivery, added t=day 0",59%
same,% Increase based on Nile Red Fluorescence Intensity,"Nannochloropsis salina; N. salina, 370.4 nM, DMSO delivery, added t=day 0",64%
same,Nile Red Fluorescence % Increase,Nannochloropsis oculata [2]; [9],152.2%
"COc1cc(/C=C/C(=O)CC(=O)/C=C/c2ccc(O)c(OC)c2)ccc1O [Curcumin, (1E,6E)-1,7-bis (4-hydroxy-3-methoxyphenyl)-1,6-heptadiene-3,5-dione]",% increase (lipid production),[1]; 6-494 nM,7-30%
same,% increase (lipid production),Nannochloropsis salina; 0.0252 nM-0.227 nM (H2O),5-9 (H2O) %
same,% increase (lipid production),"Nannochloropsis salina; 18 nM-13 μM, DMSO delivery",18-69%
same,% increase (lipid production),Nannochloropsis oculata [2]; 0.0252-0.0757 nM,4-10%
same,% Lipid increase based on Nile red fluorescence intensity,"Nannochloropsis oculata [2]; N. oculata, 75.7 pM, DMSO",49%
same,% Increase based on Nile Red Fluorescence Intensity,"Nannochloropsis oculata [2]; N. oculata, 75.7 pM, DMSO delivery",49%
O=C(O)O [Bicarbonate],MUFAs (%),Nannochloropsis oculata [3],13%
same,PUFAs (%),Nannochloropsis oculata [3],87%
same,SFAs (%),Nannochloropsis oculata [3],0%
same,n3 PUFAs (%),Nannochloropsis oculata [3],20%
"Oc1cc(O)c2c(c1)O[C@H](c1ccc(O)c(O)c1)[C@H](O)C2 [(−)-epicatechin, (−)-Epicatechin]",effect on lipid production / lipid levels,[1],lipid production increased
same,effect on lipid production / lipid levels,Nannochloris sp.,lipid production increased
same,% Inc,"Nannochloropsis salina; N. salina, best conc. 2.4 nM",147.90%
same,effect on lipid production / lipid levels,Nannochloropsis salina,lipid production increased
same,effect on lipid production / lipid levels,Nannochloropsis oculata [2],lipid production increased
"O=C(NCCCCCCNC(=O)ON=C1CCCCC1)ON=C1CCCCC1 [RHC80267, 1,6-bis(Cyclohexyloximinocarbonylamino)hexane]",% change in abs,[1],−6.46%
same,% in NR fl,[1],45.19%
same,% in NR fl,Nannochloropsis salina,71.52% and 68.33%
same,% change in abs,Nannochloropsis oculata [2],12.83%
same,% in NR fl,Nannochloropsis oculata [2],49.41%
CC(O)C(=O)O (stereo not drawn) [Lactic Acid],Nile Red Fluorescence % Increase,Nannochloris sp.; [10],30.9%
same,Nile Red Fluorescence % Increase,Nannochloropsis oculata [2]; [9],128.8%
O=C(O)/C=C/c1ccc(O)c(O)c1 [Caffeic acid],% increase (lipid production),[1]; 6-165 nM,13-205%
same,% Lipid increase based on Nile red fluorescence intensity,"[1]; P. tricornutum, 4 μM, (water), t=day 0",94%
same,% Increase based on Nile Red Fluorescence Intensity,"[1]; P. tricornutum, 4 μM, dissolved in water, added t=day 0",94%
same,effect on lipid production / lipid levels,[1],minimal effect on lipid production
same,% increase (lipid production),"Nannochloropsis salina; 0.0252 nM-165.6 nM, DMSO delivery",1-40%
same,% increase (lipid production),Nannochloropsis salina; 0.0252-0.681 nM (H2O),62-110 (H2O) %
same,Nile Red percent increase,"Nannochloropsis salina; 0.076-681 nM (H2O), dose-response microplate screen",96-117%
same,increase in lipid production,"Nannochloropsis salina; diluted in water, microplate",more than 100%
same,optimal effective concentration (lipid production),Nannochloropsis salina; lipoxygenase inhibitor microplate screen,0.22 to 0.68 nM
same,lipid increase,"Nannochloropsis salina; with DMSO, microplate",< 20%
same,% increase (lipid production),Nannochloropsis oculata [2]; 0.681 nM,5%
"Oc1ccc(/C=C/c2cc(O)cc(O)c2)cc1 [Resveratrol, 5-[(E)-2-(4-hydroxyphenyl)ethenyl]benzene-1,3-diol]",% Lipid increase based on Nile red fluorescence intensity,"[1]; P. tricornutum, 10 nM, DMSO, t=day 0",61%
same,% Increase based on Nile Red Fluorescence Intensity,"[1]; P. tricornutum, 10 nM, DMSO delivery, added t=day 0",61%
same,Nile Red Fluorescence % Increase,Nannochloris sp.; [10],53.3%
same,% Inc,"Nannochloropsis salina; N. salina, best conc. 10 nM",272.72%
same,Nile Red Fluorescence % Increase,Nannochloropsis oculata [2]; [9],120.4%
"O=C(NCCN1CCC(n2c(=O)[nH]c3cc(Cl)ccc32)CC1)c1ccc(F)cc1 [Halopemide, N-[2-[4-(5-Chloro-2,3-dihydro-2-oxo-1H-benzimidazol-1-yl)piperidino]ethyl]-4-fluorobenzamide]",% change in abs,"[1]; P. tricornutum, 10 μM",−31.22%
same,% in NR fl,"[1]; P. tricornutum, 10 μM",73.94%
same,% change in abs,"Nannochloropsis oculata [2]; N. oculata, 40 μM",−2.02%
same,% in NR fl,"Nannochloropsis oculata [2]; N. oculata, 40 μM",55.13%
"Nc1cc2ncnc(Nc3cccc(Br)c3)c2cc1N [BPDQ, 4-[(3-bromophenyl)amino]-6,7-diamino-quinazoline]",% Lipid increase based on Nile red fluorescence intensity,"[1]; P. tricornutum, 400 fM, (water), t=day 0",63%
same,% Increase based on Nile Red Fluorescence Intensity,"[1]; P. tricornutum, 400 fM, dissolved in water, added t=day 0",63%
same,Absorbance (percent increase),Nannochloris sp.; [4],−6.5%
same,Nile Red percent increase,Nannochloris sp.; [4],75.8%
same,Absorbance (percent increase),Nannochloropsis salina; [4],−6.7%
same,Nile Red percent increase,Nannochloropsis salina; [4],54.9%
same,% Lipid increase based on Nile red fluorescence intensity,"Nannochloropsis salina; N. salina, concentration 6.0 (unit not given), DMSO, t=day 0",130%
same,% Increase based on Nile Red Fluorescence Intensity,"Nannochloropsis salina; N. salina, 6.0 nM, DMSO delivery, added t=day 0",130%
same,% Increase based on Nile Red Fluorescence Intensity,"Nannochloropsis salina; N. salina, 55 nM, DMSO delivery, added t=day 0",86%
N#CC(C#N)=Cc1cc(O)c(O)c(O)c1 [AG82],Nile Red Fluorescence % Increase,Nannochloris sp.; [10],54.2%
same,Nile Red Fluorescence % Increase,Nannochloropsis oculata [2]; [9],144.5%
O=c1c(O)c(-c2ccc(O)c(O)c2)oc2cc(O)cc(O)c12 [Quercitin],% Inc,"Nannochloropsis oculata [2]; increase of lipid production, N. oculata, best conc. 2.5 μM",67.10%
"O=c1ccc2cc(O)c(O)cc2o1 [Esculetin, 6,7-Dihydroxy-2-chromenone]",% increase (lipid production),[1]; 0.0252-18.4 nM,3-79%
same,% increase (lipid production),Nannochloropsis salina; 0.0252-6.13 nM (H2O),5-31 (H2O) %
same,% increase (lipid production),"Nannochloropsis salina; 0.0757-55.2 nM, DMSO delivery",1-30%
same,% Lipid increase based on Nile red fluorescence intensity,"Nannochloropsis salina; N. salina, 6.13 nM, DMSO, t=day 0",62%
same,% Increase based on Nile Red Fluorescence Intensity,"Nannochloropsis salina; N. salina, 681 pM, DMSO delivery, added t=day 0",50%
same,% Increase based on Nile Red Fluorescence Intensity,"Nannochloropsis salina; N. salina, 6.13 nM, DMSO delivery, added t=day 0",62%
